In patent US8952150B2, “Prostaglandin transporter inhibitors and uses thereof” (Albert Einstein College of Medicine of Yeshiva University, priority 2009, dated 2015):

Target: rat PGT (Rattus norvegicus (Rat), UniProt Q00910)
Assay: [3H]PGE2 uptake inhibition in MDCK cells stably transfected with rat PGT (percent inhibition and IC50)
Type: cell-based
Conditions: for Inh (% of Ctl) 0.5 μM: 0.5 μM compound; for Inh (% of Ctl) 0.5 μM / Inh (% of Ctl) 2.5 μM / Inh (% of Ctl) 5 μM / Inh (% of Ctl) 0.1 μM / Inh (% of Ctl) 1 μM / Inh (% of Ctl) 10 μM: inhibition of [3H]PGE2 uptake; for Inh (% of Ctl) 2.5 μM: 2.5 μM compound; for Inh (% of Ctl) 5 μM: 5 μM compound; for Inh (% of Ctl) 0.1 μM: 0.1 μM compound; for Inh (% of Ctl) 1 μM: 1 μM compound; for Inh (% of Ctl) 10 μM: 10 μM compound; for IC50: [3H]PGE2 uptake, MDCK cells stably transfected with rat PGT
Procedure: MDCK cells stably transfected with rat PGT (Endo et al., 2002) were seeded at 15-20% confluence on 24-well plates. The day on which the cells were seeded was considered day 1. PGE2 uptake experiments were conducted on day 4. All of the PGE2 uptake experiments were conducted at room temperature. On day 4, cells were washed twice with Waymouth buffer (135 mM NaCl, 13 mM H-Hepes, 13 mM Na-Hepes, 2.5 mM CaCl2, 1.2 mM MgCl2, 0.8 mM MgSO4, 5 mM KCl, and 28 mM D-glucose). Then 200 μL of Waymouth buffer containing [^3H]PGE2 (purchased from Perkin Elmer) was added to each well. At the designed time, the uptake of [^3H]PGE2 was stopped by aspiration of uptake buffer; this was followed by immediate washing twice with 500 μL of chilled Waymouth buffer. Cells were then lysed with 100 μL lysis buffer containing 0.25% SDS and 0.05 N NaOH. 1.5 mL of scintillation solution was added to each well, and intracellular [^3H]PGE2 was counted by MicroBeta Counter.
For preliminary testing of the compounds, 20 μL of Waymouth buffer containing the compound was added to each well; this was immediately followed by the addition of 180 μL of Waymouth buffer containing [^3H]PGE2. In each well, the total volume of uptake medium was 200 μL. Organic compounds were first dissolved in EtOH and then diluted in Waymouth buffer. The percent inhibition of [^3H]PGE2 uptake by compounds was calculated as [(uptakevehicle−uptakeinhibitor)÷(uptakevehicle)]×100.
IC50 was calculated by fitting an equation of y=m1−m1*(m0/(m2+m0)).

| Inh (% of Ctl) 0.5 μM | Inh (% of Ctl) 2.5 μM | Inh (% of Ctl) 5 μM | Inh (% of Ctl) 0.1 μM | Inh (% of Ctl) 1 μM | Inh (% of Ctl) 10 μM | IC50 | SMILES |
| --- | --- | --- | --- | --- | --- | --- | --- |
| 2.1 % of Ctl | 5.0 % of Ctl | 47.6 % of Ctl | – | – | – | – | O=C(NCCOCCOCCNc1nc(Nc2ccc(O)cc2)nc(Nc2ccc(C(=O)NCc3ccccc3)c(C(F)(F)F)c2)n1)c1ccccc1 [compound 82] |
| 76.8 % of Ctl | – | – | 54.4 % of Ctl | – | – | – | O=C(NCCOCCOCCNc1nc(Nc2ccc(O)cc2)nc(Nc2ccc(C(=O)NCC3CCCCC3)cc2)n1)c1ccccc1 [compound 115] |
| – | – | – | – | 26.1 % of Ctl | 78.25 % of Ctl | – | O=C(NCCOCCOCCNc1nc(Nc2ccccc2)nc(Nc2ccc(O)cc2)n1)c1ccc(F)cc1 [compound 30] |
| – | – | – | – | 12.7 % of Ctl | 26.1 % of Ctl | – | CCCCCCNc1nc(Nc2ccccc2)nc(Nc2ccc(O)cc2)n1 [compound 55] |
| – | – | 66.1 % of Ctl | – | 19.7 % of Ctl | 75.3 % of Ctl | – | O=C(NCCOCCOCCNc1nc(Nc2ccccc2)nc(Nc2ccc(O)cc2)n1)c1ccccc1C(F)(F)F [compound 72] |
| 21.2 % of Ctl | – | 84.0 % of Ctl | – | – | – | 1050 nM | O=C(NCCOCCOCCNc1nc(Nc2ccc(O)cc2)nc(Nc2ccc(C(=O)NCc3ccccn3)cc2)n1)c1ccccc1 [compound 70] |
| 49.2 % of Ctl | 84.1 % of Ctl | 92.4 % of Ctl | 36.8 % of Ctl | – | – | – | O=C(NCCOCCOCCNc1nc(Nc2ccc(O)cc2)nc(Nc2ccc(C(=O)NCc3ccc(C(F)(F)F)cc3)cc2)n1)c1ccccc1 [compound 113] |
| – | – | – | – | 7.5 % of Ctl | 46.1 % of Ctl | – | COC(=O)c1ccc(Nc2nc(NCCOCCOCCNC(=O)c3ccccc3)nc(Nc3ccccc3)n2)cc1 [compound 61] |
| – | – | – | – | 17.4 % of Ctl | 29.8 % of Ctl | – | O=C(O)COCCOCCNc1nc(Nc2ccccc2)nc(Nc2ccc(O)cc2)n1 [compound 51] |
| 36.6 % of Ctl | – | – | 12.0 % of Ctl | – | – | – | CN(c1ccc(O)cc1)c1nc(NCCOCCOCCNC(=O)c2ccccc2)nc(Nc2ccc(C(=O)NCc3ccccc3)cc2)n1 [compound 123] |
| – | – | – | – | 15.9 % of Ctl | 49.6 % of Ctl | – | O=C(NCCOCCOCCNc1nc(Nc2ccccc2)nc(Nc2ccc(O)cc2)n1)c1ccncc1 [compound 29] |
| – | – | – | – | 36.8 % of Ctl | 75.8 % of Ctl | 2460 nM | O=C(NCCOCCNc1nc(Nc2ccccc2)nc(Nc2ccc(O)cc2)n1)c1ccccc1 [compound 59] |
| 12.9 % of Ctl | – | – | 8.4 % of Ctl | 20.7 % of Ctl | – | – | O=C(NCc1ccc(F)cc1)c1ccc(Nc2nc(Nc3ccc(O)cc3)nc(Nc3ccc(C(=O)NCc4ccc(F)cc4)cc3)n2)cc1 [compound 148] |
| – | – | 13.7 % of Ctl | – | 5.7 % of Ctl | 37.1 % of Ctl | – | O=C(NCCCCNc1nc(Nc2ccccc2)nc(Nc2ccc(O)cc2)n1)c1ccccc1 [compound 84] |
| 1.8 % of Ctl | 4.3 % of Ctl | 23.2 % of Ctl | – | – | – | – | O=C(NCCOCCOCCNc1nc(Nc2ccc(O)cc2)nc(Nc2ccc3c(c2)C(=O)NC3=O)n1)c1ccccc1 [compound 77] |
| 22.5 % of Ctl | – | – | 17.8 % of Ctl | 34.5 % of Ctl | – | – | O=C(NCc1ccccc1)c1ccc(Nc2nc(NCCOCCNS(=O)(=O)c3ccccc3)nc(Nc3ccc(O)cc3)n2)cc1 [compound 138] |
| 28.8 % of Ctl | – | – | 1.0 % of Ctl | – | – | – | O=C(O)c1ccc(CNc2nc(NCCOCCOCCNC(=O)c3ccccc3)nc(Nc3ccc(C(=O)NCc4ccccc4)cc3)n2)cc1 [compound 121] |
| 2.4 % of Ctl | – | 56.5 % of Ctl | – | – | – | – | O=C(NCCOCCOCCNc1nc(Nc2ccc(O)cc2)nc(Nc2ccc(O)cc2)n1)c1ccccc1 [compound 28] |
| 59.4 % of Ctl | – | – | 36.4 % of Ctl | – | – | – | O=C(NCCOCCOCCNc1nc(Nc2ccccc2)nc(Nc2ccc(C(=O)NCc3ccccc3)cc2)n1)c1ccccc1 [compound 116] |

| Inh (% of Ctl) 0.5 μM | Inh (% of Ctl) 2.5 μM | Inh (% of Ctl) 5 μM | Inh (% of Ctl) 0.1 μM | Inh (% of Ctl) 1 μM | Inh (% of Ctl) 10 μM | IC50 | SMILES |
| --- | --- | --- | --- | --- | --- | --- | --- |
| – | 38.9 % of Ctl | 75.3 % of Ctl | – | – | – | – | COC(=O)[C@H](NC(=O)c1ccc(Nc2nc(NCCOCCOCCNC(=O)c3ccccc3)nc(Nc3ccc(O)cc3)n2)cc1)c1ccccc1 [compound 73] |
| 13.5 % of Ctl | 35.9 % of Ctl | 70.5 % of Ctl | – | – | – | – | CCCCCCCC(=O)c1ccc(Nc2nc(NCCOCCOCCNC(=O)c3ccccc3)nc(Nc3ccc(O)cc3)n2)cc1 [compound 76] |
| 3.1 % of Ctl | – | – | 7.1 % of Ctl | 6.9 % of Ctl | – | – | O=C(NCc1ccc(F)cc1)c1ccc(Nc2nc(Nc3ccc(O)cc3)nc(Nc3ccc(O)cc3)n2)cc1 [compound 145] |
| 12.9 % of Ctl | – | 27.7 % of Ctl | – | – | – | – | Nc1ccc(Nc2nc(NCCOCCOCCNC(=O)c3ccccc3)nc(Nc3ccc(O)cc3)n2)cc1 [compound 25] |
| – | – | – | – | 29.0 % of Ctl | 71.0 % of Ctl | – | COc1ccc(C(=O)NCCOCCOCCNc2nc(Nc3ccccc3)nc(Nc3ccc(O)cc3)n2)cc1 [compound 32] |
| 52.3 % of Ctl | – | – | – | – | – | 224 nM | O=C(O)C(F)(F)F.[N-]=[N+]=NCCOCCOCCNC(=O)c1ccc(Nc2nc(NCCOCCOCCNC(=O)c3ccccc3)nc(Nc3ccc(O)cc3)n2)cc1 [compound 8] |
| 13.4 % of Ctl | – | 76.1 % of Ctl | – | – | – | – | O=C(NCCOCCOCCNc1nc(Nc2ccc(O)cc2)nc(Nc2ccc(C(=O)NCc3cccnc3)cc2)n1)c1ccccc1 [compound 67] |
| – | – | – | – | 7.2 % of Ctl | 34.5 % of Ctl | – | COC(=O)Cc1ccc(Nc2nc(NCCOCCOCCNC(=O)c3ccccc3)nc(Nc3ccccc3)n2)cc1 [compound 60] |
| – | – | – | – | 0.1 % of Ctl | 1.8 % of Ctl | – | O=C(O)CCCCCCNc1nc(Nc2ccccc2)nc(Nc2ccc(O)cc2)n1 [compound 52] |
| – | – | – | – | 11.0 % of Ctl | 44.1 % of Ctl | – | O=C(NCCCCCCCNc1nc(Nc2ccccc2)nc(Nc2ccc(O)cc2)n1)c1ccccc1 [compound 63] |
| – | – | 23.4 % of Ctl | – | 1.9 % of Ctl | 50.4 % of Ctl | – | O=C(NCCOCCOCCNc1nc(Nc2ccccc2)nc(Nc2ccc3[nH]nnc3c2)n1)c1ccccc1 [compound 95] |
| 28.2 % of Ctl | – | 53.8 % of Ctl | – | – | – | – | O=C(NCCOCCOCCNc1nc(Nc2ccc(O)cc2)nc(NC2CCCCC2)n1)c1ccccc1 [compound 27] |
| 15.5 % of Ctl | – | 77.2 % of Ctl | – | 71.6 % of Ctl | 90.2 % of Ctl | 115 nM | O=C(NCCOCCOCCNc1nc(Nc2ccc(C(=O)NCc3ccccc3)cc2)nc(Nc2ccc3[nH]ncc3c2)n1)c1ccccc1 [compound 64] |
| 1.6 % of Ctl | – | 6.5 % of Ctl | – | – | – | – | O=C(NCCOCCOCCNc1nc(Nc2ccccc2)nc(Nc2ccc(OCc3ccccc3)cc2)n1)c1ccccc1 [compound 2] |
| 61.6 % of Ctl | 87.8 % of Ctl | 91.6 % of Ctl | 46.6 % of Ctl | – | – | – | O=C(NCCOCCOCCNc1nc(Nc2ccc(O)cc2)nc(Nc2ccc(C(=O)NCc3ccc(Cl)c(Cl)c3)cc2)n1)c1ccccc1 [compound 104] |
| 4.8 % of Ctl | – | 22.5 % of Ctl | – | – | – | – | COCCOCCOCCNc1nc(NCCOCCOCCNC(=O)c2ccccc2)nc(Nc2ccc(OCc3ccccc3)cc2)n1 [compound 7] |
| 71.8 % of Ctl | – | – | 36.6 % of Ctl | 82.2 % of Ctl | – | – | O=C(NCCOCCOCCNc1nc(Nc2ccc(O)cc2)nc(Nc2ccc(C(=O)NCc3c(F)cccc3F)cc2)n1)c1ccccc1 [compound 128] |
| 3.6 % of Ctl | – | 11.7 % of Ctl | – | – | – | – | O=C(NCCOCCOCCNc1nc(NCCO)nc(Nc2ccc(OCc3ccccc3)cc2)n1)c1ccccc1 [compound 6] |
| 62.4 % of Ctl | – | 88.1 % of Ctl | – | – | 95.5 % of Ctl | 42.7 nM | O=C(NCCOCCOCCNc1nc(Nc2ccc(O)cc2)nc(Nc2ccc(C(=O)NCc3ccccc3)cc2)n1)c1ccccc1 [compound 22] |
